Results as given in US20100298329A1, “TOLPERISONE AND TOLPERISONE-LIKE DRUGS FOR THE TREATMENT OF K-RAS ASSOCIATED CANCERS” (Massachusette Institute of Technology, priority 2007, published 2010).

Legend:
[1] = tested on: wild-type and K-rasG12D MEFs; assay: Gene expression profiling (GSEA, Connectivity Map); assay type: cell-based, mouse
Procedure: (§1) To study the selectivity of lanperisone for K-ras mutant cells, gene expression profiling experiments were carried out using wild-type and K-rasG12D MEFs treated with lanperisone or control DMSO. The gene expression signatures associated with lanperisone treatment were compared with those observed upon 1) manipulation of any of a number of defined biological pathways (i.e., Gene Set Enrichment Analysis or GSEA) and 2) treatment with small molecules with known targets including FDA-approved drugs (ie the Connectivity Map or CMAP). […] This mechanism of cell death occurs in both mouse and human cells, as well as in both fibroblast and epithelial cell lines.

[2] = tested on: K-rasG12D-expressing cells; assay: Additional biochemical experiments on mechanism of cell death (reactive oxygen species); assay type: cell-based; conditions: mouse and human cells, fibroblast and epithelial cell lines
Procedure: as §1

[3] = tested on: K-Ras mutant cells (cells with Kras G12D mutation); assay: FACS analysis of cell death and proliferation (Tunnel/PI staining, DNA content, BrdU staining); assay type: cell-based
Procedure: The effects of lanperisone on cell proliferation and cell death were evaluated based on a FACS analysis. Tunnel staining (for dying cells) and PI staining (excluded by living cells) were used to evaluate cell death in lanperisone and DMSO treated wild-type and K-Ras mutant cells (cells with a Kras G12D mutation).

[4] = tested on: subcutaneous K-ras G12D-expressing mouse fibroblast tumors; assay: Xenograft tumor size in mice; assay type: in vivo; conditions: 100-200 mg/kg once a day, 7 consecutive days, vs matched DMSO controls
Procedure: The effectiveness of one or more compounds of the invention (e.g., lanperisone) was evaluated in vivo using xenografts. The effect on xenograft tumor size was evaluated in mice by administering a compound of the invention at a dose of 100-200 mg/kg once a day (e.g., via oral administration in water). The compounds were also administered intraperitoneally. Mice harboring established, subcutaneous tumors measuring at least 1 cm were treated with lanperisone for 7 consecutive days. […] These findings confirm the in vivo efficacy of lanperisone in targeting K-ras mutant tumors.

[5] = tested on: mouse embryonic fibroblasts (MEFs) expressing oncogenic K-Ras; assay: Cell Titer Glo cell viability screen, mutant K-Ras vs wild-type MEFs; assay type: cell-based; conditions: cell viability by intracellular ATP
From the text: These MEFs have been extensively characterized at the molecular and cellular level. […] The inclusion of wild-type cells allowed for the elimination of general cytotoxic compounds and for the targeting of molecular pathways activated by oncogenic K-Ras.
(§2) The differential activity of tolperisone confirmed using other assays, such as BrdU cytoblot assay, which measures proliferation based upon incorporation of BrdU.

[6] = tested on: K-Ras mutant cells; assay: BrdU cytoblot assay (proliferation by BrdU incorporation); assay type: cell-based, mouse; conditions: proliferation based upon incorporation of BrdU
From the text: as §2

| Structure (SMILES) | Connectivity Map connectivities with other classes of small molecules ([1]; calcium modulators, HDAC inhibitors, HIF activators) | GSEA pathway enrichment ([1]; lanperisone-treated MEFs vs DMSO) | mechanism of selective cell killing [2] | cell cycle phase specificity of cell death (cellular DNA content) ([3]; FACS, FIG. 3B) | cellular proliferation (BrdU staining) ([3]; FACS, FIG. 3C) | cell death (Tunnel staining / PI staining) ([3]; at 6 hours, 10 μM and 20 μM, Kras G12D cells relative to wild-type cells) | tumor size at the end of the treatment period [4] | concentration at which differential activity was shown (as low as) [5] | differential activity in BrdU cytoblot assay [6] |
| --- | --- | --- | --- | --- | --- | --- | --- | --- | --- |
| C[C@H](CN1CCCC1)C(=O)c1ccc(C(F)(F)F)cc1 [lanperisone] | Numerous connectivities | marked enrichment of hypoxia as well as oxidative stress pathways | selectively kills K-rasG12D-expressing cells by inducing reactive oxygen species | not specific to any particular phase of the cell cycle | no specific defect in cellular proliferation | preferentially caused cell death in K-Ras mutant cells | significantly smaller tumors than matched controls | – | – |
| Cc1ccc(C(=O)C(C)CN2CCCCC2)cc1 (stereo not drawn) [tolperisone] | – | – | – | – | – | – | – | 5 microns | confirmed |
